Assay results as given in PubChem BioAssay (NCI).
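Grown in 96-well plates, cells were treated for 48 hours with each compound at five concentrations. Insufficient inhibition: endpoint recorded as highest concentration tested. The concentration for 50% growth inhibition is given as GI50. TGI: total growth inhibition.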

Assays:
Test in all cases: NCI anticancer screen, dose series, 48 h
HOP-62 NSCLC = test system: HOP-62 NSCLC
NCI-H460 lung = test system: NCI-H460 lung
NCI-H522 lung = test system: NCI-H522 lung
OVCAR-3 ovarian = test system: OVCAR-3 ovarian
OVCAR-5 ovarian = test system: OVCAR-5 ovarian
RXF 393 renal = test system: RXF 393 renal
SK-OV-3 ovarian = test system: SK-OV-3 ovarian
SN12C renal = test system: SN12C renal
SNB-19 CNS = test system: SNB-19 CNS
UACC-257 melanoma = test system: UACC-257 melanoma

## COc1ccc(-c2ccncc2)cc1C(N)=O
HOP-62 NSCLC
  GI50: > 25 µM
  TGI: > 25 µM
NCI-H460 lung
  GI50: > 25 µM
  TGI: > 25 µM
NCI-H522 lung
  GI50: > 25 µM
  TGI: > 25 µM
OVCAR-3 ovarian
  GI50: > 25 µM
  TGI: > 25 µM
OVCAR-5 ovarian
  GI50: > 25 µM
  TGI: > 25 µM
RXF 393 renal
  GI50: > 25 µM
  TGI: > 25 µM
SK-OV-3 ovarian
  GI50: > 25 µM
  TGI: > 25 µM
SN12C renal
  GI50: > 25 µM
  TGI: > 25 µM
SNB-19 CNS
  GI50: > 25 µM
  TGI: > 25 µM
UACC-257 melanoma
  GI50: > 25 µM
  TGI: > 25 µM

## O=c1/c(=C/c2ccccc2[N+](=O)[O-])sc2nc3ccccc3n12
HOP-62 NSCLC
  TGI: > 46.4 µM
NCI-H460 lung
  TGI: > 46.4 µM
NCI-H522 lung
  TGI: > 100 µM
OVCAR-3 ovarian
  TGI: > 31.6 µM
OVCAR-5 ovarian
  TGI: > 46.4 µM
RXF 393 renal
  TGI: 41.9 µM
SK-OV-3 ovarian
  TGI: > 31.6 µM
SN12C renal
  TGI: > 46.4 µM
SNB-19 CNS
  TGI: > 77.9 µM
UACC-257 melanoma
  TGI: > 46.4 µM

## NS(=O)(=O)c1ccc(-n2nc3c(c2-c2ccc(Cl)cc2)Cc2ccccc2-3)cc1
HOP-62 NSCLC
  GI50: 30.4 µM
  TGI: 49.4 µM
NCI-H460 lung
  GI50: 32.1 µM
  TGI: > 100 µM
NCI-H522 lung
  GI50: 5.63 µM
  TGI: 19.3 µM
OVCAR-3 ovarian
  GI50: 17 µM
  TGI: 31.6 µM
OVCAR-5 ovarian
  GI50: 24.2 µM
  TGI: 57.4 µM
RXF 393 renal
  GI50: 17 µM
  TGI: 34.4 µM
SK-OV-3 ovarian
  GI50: 77.1 µM
  TGI: > 100 µM
SN12C renal
  GI50: 5.49 µM
  TGI: 18.3 µM
SNB-19 CNS
  GI50: 31.7 µM
  TGI: > 100 µM
UACC-257 melanoma
  GI50: 20.6 µM
  TGI: 39.5 µM

## COc1cc2nc(SCc3cc(OC)c(OC)c(OC)c3)n(Cc3ccccc3)c(=O)c2cc1OC
HOP-62 NSCLC
  GI50: 4.48 µM
  TGI: 20.6 µM
NCI-H460 lung
  GI50: 3.09 µM
  TGI: > 100 µM
NCI-H522 lung
  GI50: 0.744 µM
  TGI: 5.83 µM
OVCAR-3 ovarian
  GI50: 2.24 µM
  TGI: 8.37 µM
OVCAR-5 ovarian
  GI50: 16.3 µM
  TGI: > 100 µM
RXF 393 renal
  GI50: 1.02 µM
  TGI: 10.8 µM
SK-OV-3 ovarian
  GI50: 3.18 µM
  TGI: 18.6 µM
SN12C renal
  GI50: 7.65 µM
  TGI: > 100 µM
SNB-19 CNS
  GI50: 5.4 µM
  TGI: 48.2 µM
UACC-257 melanoma
  GI50: 5.25 µM
  TGI: > 100 µM

## [C](#Cc1ccccc1)[Hg][C]#Cc1ccccc1
HOP-62 NSCLC
  GI50: > 100 µM
  TGI: > 100 µM
NCI-H460 lung
  GI50: 86.2 µM
  TGI: > 100 µM
NCI-H522 lung
  GI50: 19.4 µM
  TGI: 46.1 µM
OVCAR-3 ovarian
  GI50: 39.8 µM
  TGI: > 100 µM
OVCAR-5 ovarian
  GI50: 63.1 µM
  TGI: > 100 µM
RXF 393 renal
  GI50: 16.5 µM
  TGI: 34.9 µM
SK-OV-3 ovarian
  GI50: > 100 µM
  TGI: > 100 µM
SN12C renal
  GI50: 30.1 µM
  TGI: 73.3 µM
SNB-19 CNS
  GI50: 47.3 µM
  TGI: > 100 µM
UACC-257 melanoma
  GI50: 22.5 µM
  TGI: 41.6 µM

## O=C(/C=C/C12c3ccccc3C(c3ccccc31)C1C(=O)NC(=O)C12)c1ccc(Cl)cc1Cl (configuration not stated)
HOP-62 NSCLC
  GI50: 2.06 µM
  TGI: 4.71 µM
NCI-H460 lung
  GI50: 1.85 µM
  TGI: 3.82 µM
NCI-H522 lung
  GI50: 1.69 µM
  TGI: 3.41 µM
OVCAR-3 ovarian
  GI50: 1.71 µM
  TGI: 3.16 µM
OVCAR-5 ovarian
  GI50: 1.72 µM
  TGI: 3.3 µM
RXF 393 renal
  GI50: 1.73 µM
  TGI: 3.22 µM
SK-OV-3 ovarian
  GI50: 2.4 µM
  TGI: 6.71 µM
SN12C renal
  GI50: 1.77 µM
  TGI: 3.29 µM
SNB-19 CNS
  GI50: 1.62 µM
  TGI: 3.03 µM
UACC-257 melanoma
  GI50: 1.76 µM
  TGI: 3.46 µM

## COC(=O)C1C(O)CCC2CN3CCc4c([nH]c5ccccc45)C3CC21 (configuration not stated)
HOP-62 NSCLC
  GI50: > 100 µM
  TGI: > 100 µM
NCI-H460 lung
  TGI: > 100 µM
NCI-H522 lung
  TGI: > 100 µM
OVCAR-3 ovarian
  TGI: > 100 µM
OVCAR-5 ovarian
  TGI: > 100 µM
RXF 393 renal
  TGI: > 100 µM
SK-OV-3 ovarian
  TGI: > 100 µM
SN12C renal
  TGI: > 100 µM
SNB-19 CNS
  GI50: > 100 µM
  TGI: > 100 µM
UACC-257 melanoma
  TGI: > 100 µM

## COc1cc(F)c(F)c(Nc2ccc(I)cc2F)c1NS(=O)(=O)C1(C[C@H](O)CO)CC1
HOP-62 NSCLC
  GI50: 0.184 µM
  TGI: > 10 µM
NCI-H460 lung
  GI50: 1.62 µM
  TGI: > 10 µM
NCI-H522 lung
  GI50: 3.72 µM
  TGI: > 10 µM
OVCAR-3 ovarian
  GI50: > 6.76 µM
  TGI: > 10 µM
OVCAR-5 ovarian
  GI50: 0.0597 µM
  TGI: > 10 µM
RXF 393 renal
  GI50: 1.05 µM
  TGI: > 9.5 µM
SK-OV-3 ovarian
  GI50: 3.42 µM
  TGI: > 10 µM
SN12C renal
  GI50: 1.9 µM
  TGI: > 10 µM
SNB-19 CNS
  GI50: 1.83 µM
  TGI: > 10 µM
UACC-257 melanoma
  GI50: 0.0239 µM
  TGI: 0.2 µM

## COc1ccc(/C=C/C(=O)/C=C/c2cc3ccccc3[nH]c2=O)cc1
HOP-62 NSCLC
  GI50: 4.67 µM
  TGI: 17.8 µM
NCI-H460 lung
  GI50: 4.98 µM
  TGI: 20 µM
NCI-H522 lung
  GI50: 1.97 µM
  TGI: 4.67 µM
OVCAR-3 ovarian
  GI50: 2.85 µM
  TGI: 7.91 µM
OVCAR-5 ovarian
  GI50: 5.13 µM
  TGI: 19.9 µM
RXF 393 renal
  GI50: 3.31 µM
  TGI: 11.9 µM
SK-OV-3 ovarian
  GI50: 9.22 µM
  TGI: 26.7 µM
SN12C renal
  GI50: 2.41 µM
  TGI: 6.73 µM
SNB-19 CNS
  GI50: 10.6 µM
  TGI: 29 µM
UACC-257 melanoma
  GI50: 10.8 µM
  TGI: 25.3 µM

## CC1=CC(=O)CC2(C)CC[C@@H]3C[C@]12OC3(C)C (some centres not stated)
HOP-62 NSCLC
  TGI: > 100 µM
NCI-H460 lung
  TGI: > 100 µM
NCI-H522 lung
  TGI: > 100 µM
OVCAR-3 ovarian
  TGI: > 100 µM
OVCAR-5 ovarian
  TGI: > 100 µM
RXF 393 renal
  TGI: > 100 µM
SK-OV-3 ovarian
  TGI: > 100 µM
SN12C renal
  TGI: > 100 µM
SNB-19 CNS
  TGI: > 100 µM
UACC-257 melanoma
  TGI: > 100 µM

## CC(=O)Oc1ccc(C23c4ccccc4C2(OC(C)=O)c2cc(OC(C)=O)ccc23)cc1 (configuration not stated)
HOP-62 NSCLC
  GI50: 8.78 µM
  TGI: 34.5 µM
NCI-H460 lung
  GI50: 12.3 µM
  TGI: 44.4 µM
NCI-H522 lung
  GI50: 2.81 µM
  TGI: 8.04 µM
OVCAR-3 ovarian
  GI50: 8.32 µM
  TGI: 52.9 µM
OVCAR-5 ovarian
  GI50: 5.54 µM
  TGI: 18 µM
RXF 393 renal
  GI50: 3.38 µM
  TGI: 12.3 µM
SK-OV-3 ovarian
  GI50: 20.5 µM
  TGI: 47.6 µM
SN12C renal
  GI50: 5.37 µM
  TGI: 20.2 µM
SNB-19 CNS
  GI50: 4.64 µM
  TGI: 15.5 µM
UACC-257 melanoma
  GI50: 22.9 µM
  TGI: 60.8 µM

## COC(=O)c1cc2c3ccccc3n3c(=O)c4cc5ccc(N(S(=O)(=O)c6ccc(C)cc6)S(=O)(=O)c6ccc(C)cc6)cc5nc4c(n1)c23
HOP-62 NSCLC
  GI50: 16.1 µM
  TGI: 45 µM
NCI-H460 lung
  GI50: > 100 µM
  TGI: > 100 µM
NCI-H522 lung
  GI50: 83.7 µM
  TGI: > 100 µM
OVCAR-3 ovarian
  GI50: > 100 µM
  TGI: > 100 µM
OVCAR-5 ovarian
  GI50: > 100 µM
  TGI: > 100 µM
RXF 393 renal
  GI50: 13.1 µM
  TGI: 37.8 µM
SK-OV-3 ovarian
  GI50: 26.2 µM
  TGI: > 100 µM
SN12C renal
  GI50: > 100 µM
  TGI: > 100 µM
SNB-19 CNS
  GI50: 26.6 µM
  TGI: 78.3 µM
UACC-257 melanoma
  GI50: > 100 µM
  TGI: > 100 µM

## O=C1c2ccccc2-[n+]2ccc3c([nH]c4ccccc43)c21
HOP-62 NSCLC
  TGI: 2.56 µM
NCI-H460 lung
  TGI: 1.43 µM
NCI-H522 lung
  TGI: 1.3 µM
OVCAR-3 ovarian
  TGI: 0.432 µM
OVCAR-5 ovarian
  TGI: 1.48 µM
RXF 393 renal
  TGI: 1.26 µM
SK-OV-3 ovarian
  TGI: 6.27 µM
SN12C renal
  TGI: 0.687 µM
SNB-19 CNS
  TGI: 2.27 µM
UACC-257 melanoma
  TGI: 1.88 µM

## CC(C)c1c(-c2ccccc2)nc2c(C#N)c[nH]n2c1=O
HOP-62 NSCLC
  GI50: 25.4 µM
  TGI: > 95.7 µM
NCI-H460 lung
  GI50: 32.6 µM
  TGI: > 100 µM
NCI-H522 lung
  GI50: 26 µM
  TGI: 80 µM
OVCAR-3 ovarian
  GI50: 25.2 µM
  TGI: 63.8 µM
OVCAR-5 ovarian
  GI50: 38.8 µM
  TGI: > 100 µM
RXF 393 renal
  GI50: 29.3 µM
  TGI: > 93.4 µM
SK-OV-3 ovarian
  GI50: 27.2 µM
  TGI: > 88.6 µM
SN12C renal
  GI50: 29.2 µM
  TGI: > 100 µM
SNB-19 CNS
  GI50: 30.8 µM
  TGI: > 100 µM
UACC-257 melanoma
  GI50: 23.1 µM
  TGI: 66.9 µM
